Test results published in patent EP4741395A1, “NOVEL COMPOUND SENSITIVE TO NITROGEN MONOXIDE AND PHARMACEUTICAL COMPOSITION COMPRISING SAME” (Omniamed Co. Ltd, priority 2023, dated 2025).

Legend:
[1] = target: T1, JAK 3 (Homo sapiens, UniProt P52333); test: JAK Human TK kinase enzymatic radiometric assay (Eurofins), JAK 3; format: biochemical; parameters: unit not given here; conditions: value close to 100 indicates low JAK activity of the compound
T1 construct: purchased Eurofins Scientific (assay service)
T1 sequence (P52333 1-1124): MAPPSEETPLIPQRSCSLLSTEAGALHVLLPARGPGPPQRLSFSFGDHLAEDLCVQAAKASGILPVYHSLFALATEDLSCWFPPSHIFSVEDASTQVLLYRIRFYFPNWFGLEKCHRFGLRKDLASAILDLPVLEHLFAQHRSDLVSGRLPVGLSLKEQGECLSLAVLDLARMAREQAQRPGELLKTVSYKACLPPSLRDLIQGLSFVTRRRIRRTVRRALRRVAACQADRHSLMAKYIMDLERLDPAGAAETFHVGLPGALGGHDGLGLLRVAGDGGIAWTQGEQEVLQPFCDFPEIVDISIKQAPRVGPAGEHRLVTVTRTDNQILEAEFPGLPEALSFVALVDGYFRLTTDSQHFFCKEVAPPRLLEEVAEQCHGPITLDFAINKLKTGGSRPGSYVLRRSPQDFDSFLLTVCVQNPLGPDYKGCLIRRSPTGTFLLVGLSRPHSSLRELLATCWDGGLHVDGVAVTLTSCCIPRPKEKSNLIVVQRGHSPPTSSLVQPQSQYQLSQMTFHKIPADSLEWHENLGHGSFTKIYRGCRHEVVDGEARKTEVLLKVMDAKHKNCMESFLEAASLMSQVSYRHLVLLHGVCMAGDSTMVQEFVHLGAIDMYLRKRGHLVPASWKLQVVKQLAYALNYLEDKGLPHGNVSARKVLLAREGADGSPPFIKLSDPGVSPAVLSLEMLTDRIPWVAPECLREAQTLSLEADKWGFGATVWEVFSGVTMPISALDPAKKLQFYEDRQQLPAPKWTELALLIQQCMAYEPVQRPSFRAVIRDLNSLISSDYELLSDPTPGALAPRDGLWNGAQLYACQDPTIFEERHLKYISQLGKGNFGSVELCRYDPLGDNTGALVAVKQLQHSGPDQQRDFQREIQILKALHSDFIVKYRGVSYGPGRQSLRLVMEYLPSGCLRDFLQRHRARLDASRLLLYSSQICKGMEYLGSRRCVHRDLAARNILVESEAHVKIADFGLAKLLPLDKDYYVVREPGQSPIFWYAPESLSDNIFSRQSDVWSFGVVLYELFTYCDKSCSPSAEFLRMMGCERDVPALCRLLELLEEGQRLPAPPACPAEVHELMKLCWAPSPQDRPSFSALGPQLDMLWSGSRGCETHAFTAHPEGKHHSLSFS
From the text: (§1) For the compounds of the Examples, JAK activity of each of the compounds was verified using the JAK Human TK Kinase Enzymatic Radiometric Kinase Profiler Assay service provided by Eurofins Scientific.
(§2) The activity was verified after inducing a reaction at the JAK 1, 2 and 3 active sites using radioactively labeled ATP.

[2] = test system: splenocytes; test: NO scavenging activity in Concanavalin A-treated splenocytes (Griess assay); format: cell-based, C57BL/6 mouse; conditions: Mus musculus, Splenocyte, Concanavalin A 5 µg/mL, 72 hours, read-out: NO Scavenging Activity (%) (Mean±SD)
Procedure, shortened: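 Splenocytes from 8-week-old C57BL/6 mice at 5×10^6 cells/mL in RPMI 1640/10% FBS, stimulated with Concanavalin A (5 µg/mL) plus […] test composition added at plating. After 72 h culture, remaining NO in supernatant measured by Griess assay.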

[3] = target: T2, JAK 2 (Homo sapiens, UniProt O60674); test: JAK Human TK kinase enzymatic radiometric assay (Eurofins), JAK 2; format: biochemical; parameters: unit not given here; conditions: value close to 100 indicates low JAK activity of the compound
T2 construct: purchased Eurofins Scientific (assay service)
T2 sequence (O60674 whole entry): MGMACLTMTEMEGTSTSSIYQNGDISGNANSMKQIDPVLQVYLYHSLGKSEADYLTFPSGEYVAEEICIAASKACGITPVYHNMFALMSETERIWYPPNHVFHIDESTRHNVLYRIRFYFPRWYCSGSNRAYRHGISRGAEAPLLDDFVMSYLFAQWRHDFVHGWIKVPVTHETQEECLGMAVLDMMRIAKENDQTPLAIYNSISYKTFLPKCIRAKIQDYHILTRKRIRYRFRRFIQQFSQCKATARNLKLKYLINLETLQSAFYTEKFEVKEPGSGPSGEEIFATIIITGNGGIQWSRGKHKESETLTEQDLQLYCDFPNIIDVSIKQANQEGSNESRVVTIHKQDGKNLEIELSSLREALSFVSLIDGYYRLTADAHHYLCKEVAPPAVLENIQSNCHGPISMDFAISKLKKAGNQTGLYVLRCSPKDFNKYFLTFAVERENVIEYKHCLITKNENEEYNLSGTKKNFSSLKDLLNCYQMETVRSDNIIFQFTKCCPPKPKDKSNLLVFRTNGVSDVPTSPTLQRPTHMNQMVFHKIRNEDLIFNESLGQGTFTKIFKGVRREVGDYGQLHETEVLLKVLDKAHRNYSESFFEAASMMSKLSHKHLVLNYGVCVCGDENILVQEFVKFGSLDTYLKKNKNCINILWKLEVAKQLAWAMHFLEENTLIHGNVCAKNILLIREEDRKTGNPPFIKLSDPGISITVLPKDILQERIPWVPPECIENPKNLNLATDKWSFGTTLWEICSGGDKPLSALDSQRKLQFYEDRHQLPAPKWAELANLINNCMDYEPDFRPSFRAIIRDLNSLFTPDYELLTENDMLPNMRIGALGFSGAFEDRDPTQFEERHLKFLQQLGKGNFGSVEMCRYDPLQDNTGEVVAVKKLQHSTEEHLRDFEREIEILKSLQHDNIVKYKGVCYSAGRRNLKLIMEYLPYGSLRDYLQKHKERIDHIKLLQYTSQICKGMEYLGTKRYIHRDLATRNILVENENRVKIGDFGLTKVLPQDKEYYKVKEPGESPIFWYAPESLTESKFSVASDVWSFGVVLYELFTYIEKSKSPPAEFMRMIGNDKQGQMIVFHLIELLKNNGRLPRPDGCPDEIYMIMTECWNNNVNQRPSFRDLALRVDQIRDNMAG
From the text: as §1, §2

[4] = test system: splenocytes; test: Inhibitory activity on cell proliferation in splenocytes (CCK-8 analysis); format: cell-based, C57BL/6 mouse; conditions: Mus musculus, Splenocyte, Concanavalin A 5 µg/mL, 72 hours, read-out: Inhibitory Activity on Cell Proliferation (%) (Mean±SD)
[5] = Hematological toxicity evaluation after single oral administration (routine blood test); conditions: single oral dose 200 mg/kg and 800 mg/kg, compared with the normal group
[6] = target: JAK 1 (Homo sapiens, UniProt P23458); test: JAK Human TK kinase enzymatic radiometric assay (Eurofins), JAK 1; conditions: value close to 100 indicates low JAK activity of the compound
Chain of JAK 1 (P23458 whole entry): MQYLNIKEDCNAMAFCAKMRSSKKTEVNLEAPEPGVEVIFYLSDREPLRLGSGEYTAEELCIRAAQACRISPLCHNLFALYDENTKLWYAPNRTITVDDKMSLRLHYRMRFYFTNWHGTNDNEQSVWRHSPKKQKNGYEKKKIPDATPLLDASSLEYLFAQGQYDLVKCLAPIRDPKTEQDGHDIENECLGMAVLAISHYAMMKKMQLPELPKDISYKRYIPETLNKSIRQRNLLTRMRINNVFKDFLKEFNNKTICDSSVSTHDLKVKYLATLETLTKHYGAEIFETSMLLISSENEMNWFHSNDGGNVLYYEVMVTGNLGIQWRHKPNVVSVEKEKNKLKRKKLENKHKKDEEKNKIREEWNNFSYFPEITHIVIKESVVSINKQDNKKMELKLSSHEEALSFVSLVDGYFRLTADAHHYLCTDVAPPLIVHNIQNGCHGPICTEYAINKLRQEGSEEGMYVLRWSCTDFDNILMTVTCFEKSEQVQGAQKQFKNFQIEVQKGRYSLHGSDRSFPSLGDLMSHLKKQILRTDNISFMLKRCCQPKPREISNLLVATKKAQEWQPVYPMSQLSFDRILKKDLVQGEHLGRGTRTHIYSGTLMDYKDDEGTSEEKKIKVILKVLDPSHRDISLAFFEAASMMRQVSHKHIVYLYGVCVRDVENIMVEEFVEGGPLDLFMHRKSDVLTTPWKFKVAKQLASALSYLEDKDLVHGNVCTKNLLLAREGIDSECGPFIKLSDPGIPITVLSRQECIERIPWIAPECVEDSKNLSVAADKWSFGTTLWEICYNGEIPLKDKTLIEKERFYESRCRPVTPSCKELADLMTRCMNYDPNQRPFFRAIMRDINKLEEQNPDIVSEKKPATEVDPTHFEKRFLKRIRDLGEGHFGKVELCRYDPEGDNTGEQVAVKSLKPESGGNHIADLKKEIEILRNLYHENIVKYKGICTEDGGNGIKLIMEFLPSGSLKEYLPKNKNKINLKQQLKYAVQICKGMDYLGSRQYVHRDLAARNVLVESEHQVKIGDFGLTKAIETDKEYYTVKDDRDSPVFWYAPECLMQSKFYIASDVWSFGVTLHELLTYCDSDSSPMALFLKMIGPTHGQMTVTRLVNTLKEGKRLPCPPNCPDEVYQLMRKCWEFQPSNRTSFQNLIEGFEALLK

[7] = in vivo
Method: Specifically, the experimental animals were twelve six-week-old C57BL/6 male mice. The experimental animals were housed in polycarbonate cages in groups of four, and had free access to food and water. The animal housing room was maintained at a temperature of 20±1°C and humidity of about 50±5%, with a constant 12-hour light/dark cycle. The experimental animals were acclimated to the animal room environment for one week, and then randomly divided into three groups of four animals each based on body weight.

Compound: C[C@@H]1CCN(C(=O)CC#N)C[C@@H]1N(C)c1ncnc2c1ccn2C(=O)Nc1ccccc1N [Example 1, N-(2-aminophenyl)-4-(((3R,4R)-1-(2-cyanoacetyl)-4-methylpiperidin-3-yl) (methyl)amino)-7H-pyrrolo[2,3-d]pyrimidine-7-carboxamide]
- JAK 3 Activity ([1]; 0.1 nM): 94
- JAK 3 Activity ([1]; 1 nM): 95
- JAK 3 Activity ([1]; 10 nM): 55
- JAK 3 Activity ([1]; 100 nM): 16
- activity at 10 µM [2]: 98.1 ± 0.09%
- JAK 2 Activity ([3]; 0.1 nM): 100
- JAK 2 Activity ([3]; 1 nM): 92
- JAK 2 Activity ([3]; 10 nM): 69
- JAK 2 Activity ([3]; 100 nM): 16
- inhibition at 10 µM [4]: 55 ± 8.48%
- hematological toxicity responses [5]: No hematological toxicity responses were observed
- JAK 1 Activity ([6]; 0.1 nM): 101
- JAK 1 Activity ([6]; 1 nM): 102
- JAK 1 Activity ([6]; 10 nM): 45
- JAK 1 Activity ([6]; 100 nM): 7
- MTD at 4 days ([7]; male, mouse, in vivo, po): 1600 mg/kg
- mortality ([7]; mice, oral once daily, 200, 400, 800, 1,600 mg/kg escalated daily): no mortality was observed
